Laboratory results from patent publication US20260253225A1, “OPTICAL SYSTEM AND METHOD FOR MONITORING ABNORMALITY ASSOCIATED PARAMETERS IN CELL-CONTAINING SAMPLES” (priority 2023, published 2026).

Legend:
[1] = system: surface of aggregation of cells; test: Dynamic reflective laser speckled imaging of cell surface vibrations; assay type: cell-based; conditions: before and after mibefradil treatment, 0-5 Hz range
Excerpt: The inventors have used the above-described imaging system 120 (the experimental set up was built by modifying an inverted fluorescence microscope set up) to acquire the sequence of tissue's images-one such image is shown in FIG. 19A. The image data analysis described above were then used to determine cell vibrations at the surface of aggregation of cells before and after the augmentation of cell membrane vibrations using mibefradil. […] FIGS. 19C and 19D show power fit parameters for the ASD analysis results in the cells (shown in FIG. 19B) before and after mibefradil treatment: parameter b (FIG. 19C) and sum of amplitudes in the 0-5 Hz range (FIG. 19D). Multiple areas of cells (N=14) were measured and compared each before and after mibefradil treatment.

[2] = system: primary lymphocytes (benign), CD8 (malignant) and Jurkat (malignant) cells; test: TIRF microscopy of cell membrane fluctuations in a model of the immune synapse; assay type: cell-based, human; conditions: frequency ranges 0-5 Hz and 10-25 Hz, before and after Mibefradil treatment
Excerpt: So far, intracellular fluctuations as captured by the motion of intracellular particles or by the cell boundaries were described. The fluctuations of the cell membrane may have an impact on the formation and function of the immune synapse that forms between T cells and antigen presenting cells (APCs). To study such a possible impact, the inventors measured fluctuations of Jurkat cells at their interface with coverslips coated with αCD3ε antibodies. Such coverslips often serve as a model for the immune synapse, as the cells spread on the coverslips and get robustly activated. The membrane of the cells was stained with an αCD45 primary antibody, labeled with Alexa647 and imaged by time-lapse TIRF microscopy. […] The reflection light was detected using an avalanche photodiode (APD) with a band-pass filter of 650-720 nm. […] Fluorescence intensity of each pixel in each image was normalized by dividing its intensity with the average intensity of that time-dependent image. The temporal fluctuations of the normalized fluorescence intensities were analyzed by DFT for each pixel in a ROI. […] Live cells were measured without and after ATP depletion, while fixed cells served for control. […] The temporal fluctuations of the normalized fluorescence intensities were analyzed via DFT for each pixel in that ROI. […]

live Jurkat cells = test: DIC microscopy of intracellular particles motion (ASD/PSD and MSD analysis); assay type: cell-based, human; conditions: 10 μM blebbistatin treatment, compared with ATP depletion
Experimental: In the following experimental results of the spectral analysis of position fluctuations in time of intracellular particles in Jurkat T lymphocytes, each cell before and after ATP depletion, are presented. […] Depletion of cellular ATP was induced by 30 min incubation with 0.2 μM of the mitochondrial complex 1 inhibitor Rotenone (Sigma-Aldrich, St. Louis, MO, United States) together with 10 mM glycolysis inhibitor 2-deoxy-D-glucose (Sigma-Aldrich, St. Louis, MO, United States). For the visualization and monitoring of intracellular objects, including vesicles, Differential Interference Contrast (DIC) microscopy was employed. Reference is made to FIG. 6a where DIC image of a representative live Jurkat cell is shown. […]
After thresholding the objects, the x and y positions of each identified particle at each point of time (determined by the MultiTracker plug in) were recorded (FIGS. 6c-6e). […] Then, the DFT of these time dependent position changes were calculated for each spatial dimension. The average DFT amplitudes of all moving particles in each cell under each condition were determined for the x and y spatial dimensions. […]
From the position results of the detected intracellular particles, the MSD values for time-lags from 0.3 to 3 s (with a 0.3 s gradual increase) were calculated. The average MSD values were determined for that series of time-lags for each cell before and after ATP depletion. […]

Structure (SMILES)	mechanical vibrations of the cells' membrane [1]	cell membrane vibrations (average DFT amplitudes) [2]	effects on intracellular motion (live Jurkat cells)
COCC(=O)O[C@]1(CCN(C)CCCc2nc3ccccc3[nH]2)CCc2cc(F)ccc2[C@@H]1C(C)C [Mibefradil]	an increase in mechanical vibrations of the cells' membrane	increases cell membrane vibrations in all cell types	–
Cc1ccc2c(c1)C(=O)C1(O)CCN(c3ccccc3)C1=N2 (stereo not drawn) [blebbistatin]	–	–	effects on intracellular motion of blebbistatin treatment and ATP depletion were similar
